Measurements: US20130156832A1, “EUDERMIC COMPOSITIONS” (Miso S.r.I., priority 2010, published 2013)

Experiment: Saturation concentration (solubility) of salicylic acid in vehicle A (water)
Assay type: physicochemical

saturation concentration (Cs, SA-A): 2 mg/mL
Compound: O=C(O)c1ccccc1O [salicylic acid]
